# Source: ChEMBL document CHEMBL1201862, “PubChem BioAssay data set” (2004)
# Activity calls are given as the source filed them.
# Assays:
# [1] = molecular target: T1, Protein Tat (Human immunodeficiency virus type 1 group M subtype B (isolate HXB2)(HIV-1), UniProt P04608); type: functional;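 further: tat binding to TAR RNA read out by fluorescence polarization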
# T1 sequence (P04608 whole entry): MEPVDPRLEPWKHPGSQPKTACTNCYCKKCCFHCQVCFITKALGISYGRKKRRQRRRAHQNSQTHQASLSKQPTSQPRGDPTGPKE
# [2] = molecular target: T2, Histone-lysine N-methyltransferase NSD2 (Homo sapiens, UniProt O96028); type: biochemical
# T2 sequence (O96028 whole entry): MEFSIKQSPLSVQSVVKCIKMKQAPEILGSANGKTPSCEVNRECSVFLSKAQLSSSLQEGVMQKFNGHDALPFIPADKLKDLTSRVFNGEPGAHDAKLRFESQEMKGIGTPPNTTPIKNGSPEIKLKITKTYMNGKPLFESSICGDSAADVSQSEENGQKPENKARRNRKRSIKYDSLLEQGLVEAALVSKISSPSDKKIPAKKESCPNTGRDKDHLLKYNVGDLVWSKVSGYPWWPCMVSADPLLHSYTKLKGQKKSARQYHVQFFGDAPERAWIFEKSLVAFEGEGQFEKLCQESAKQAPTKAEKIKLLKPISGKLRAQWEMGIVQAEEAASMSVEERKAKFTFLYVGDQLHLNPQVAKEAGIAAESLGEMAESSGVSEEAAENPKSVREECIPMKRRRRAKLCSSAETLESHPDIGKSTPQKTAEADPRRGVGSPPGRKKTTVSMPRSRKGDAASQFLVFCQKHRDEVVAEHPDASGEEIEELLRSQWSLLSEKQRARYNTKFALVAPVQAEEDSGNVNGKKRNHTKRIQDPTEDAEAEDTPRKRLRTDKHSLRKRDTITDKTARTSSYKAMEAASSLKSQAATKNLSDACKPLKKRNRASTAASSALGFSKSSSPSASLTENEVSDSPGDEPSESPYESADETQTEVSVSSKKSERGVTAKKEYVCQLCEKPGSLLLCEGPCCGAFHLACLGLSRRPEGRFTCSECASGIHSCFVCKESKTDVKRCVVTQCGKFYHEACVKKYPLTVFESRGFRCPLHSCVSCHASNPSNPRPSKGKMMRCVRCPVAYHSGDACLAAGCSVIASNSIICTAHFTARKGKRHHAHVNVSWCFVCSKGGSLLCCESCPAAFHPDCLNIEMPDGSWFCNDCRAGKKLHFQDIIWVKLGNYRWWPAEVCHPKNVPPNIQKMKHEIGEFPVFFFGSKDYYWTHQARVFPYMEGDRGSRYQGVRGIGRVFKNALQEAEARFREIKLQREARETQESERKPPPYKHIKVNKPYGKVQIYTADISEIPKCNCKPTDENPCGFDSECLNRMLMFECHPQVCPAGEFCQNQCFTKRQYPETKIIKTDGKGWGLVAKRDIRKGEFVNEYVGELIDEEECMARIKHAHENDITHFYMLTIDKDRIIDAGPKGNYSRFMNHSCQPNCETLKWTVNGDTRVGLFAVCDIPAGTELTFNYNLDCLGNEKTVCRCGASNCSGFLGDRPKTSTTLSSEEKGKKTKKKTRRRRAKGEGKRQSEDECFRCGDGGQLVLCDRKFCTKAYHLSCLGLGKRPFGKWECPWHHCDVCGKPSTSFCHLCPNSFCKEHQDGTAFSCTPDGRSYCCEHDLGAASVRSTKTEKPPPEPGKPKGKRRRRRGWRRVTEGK
# [3] = cells; type: functional, cell-based
# [4] = molecular target: T3, Zinc finger protein mex-5 (Caenorhabditis elegans, UniProt Q9XUB2); assay: potency of MEX-5 RNA-binding blockers – biochemical, C. elegans, fluorescence polarization, dose response (AID 1960)
# T3 sequence (Q9XUB2 whole entry): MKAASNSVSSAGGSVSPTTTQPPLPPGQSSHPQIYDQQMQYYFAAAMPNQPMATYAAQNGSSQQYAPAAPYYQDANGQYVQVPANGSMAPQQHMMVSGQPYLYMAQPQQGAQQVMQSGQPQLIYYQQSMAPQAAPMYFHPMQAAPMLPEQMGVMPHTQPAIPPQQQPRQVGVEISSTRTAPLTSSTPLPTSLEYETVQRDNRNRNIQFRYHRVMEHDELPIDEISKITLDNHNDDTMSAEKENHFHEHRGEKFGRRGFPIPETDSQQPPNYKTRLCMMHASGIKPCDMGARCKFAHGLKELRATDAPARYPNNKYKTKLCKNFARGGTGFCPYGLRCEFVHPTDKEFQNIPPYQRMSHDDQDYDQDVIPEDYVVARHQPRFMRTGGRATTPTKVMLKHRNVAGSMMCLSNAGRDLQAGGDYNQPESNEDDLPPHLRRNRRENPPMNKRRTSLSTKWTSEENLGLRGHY
# [5] = cells; type: functional, cell-based; remark: listed apart in the source
# [6] = molecular target: T4, Carboxy-terminal domain RNA polymerase II polypeptide A small phosphatase 1 (Homo sapiens, UniProt Q9GZU7); assay: CTDSP1 inhibitors, concentration-response, biochemical, absorbance readout, ultra-high-throughput screen actives (AID 540297); type: functional
# T4 sequence (Q9GZU7 whole entry): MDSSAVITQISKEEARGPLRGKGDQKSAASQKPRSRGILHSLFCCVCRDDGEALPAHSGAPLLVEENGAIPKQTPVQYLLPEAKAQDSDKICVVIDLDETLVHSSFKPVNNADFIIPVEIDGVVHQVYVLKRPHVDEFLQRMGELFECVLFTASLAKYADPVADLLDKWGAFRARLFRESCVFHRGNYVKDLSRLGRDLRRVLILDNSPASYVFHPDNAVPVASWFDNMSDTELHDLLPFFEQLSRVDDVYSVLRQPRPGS
# [7] = molecular target: T5, RNA-binding protein pos-1 (Caenorhabditis elegans, UniProt G5EF15); assay: disruptors of C. elegans POS-1 RNA interaction – biochemical, fluorescence polarization, dose response (AID 1964);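 further: purified POS-1 fused to maltose binding protein made in E. coli; potency of compounds blocking POS-1 binding to fluorescent RNA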
# T5 sequence (G5EF15 whole entry): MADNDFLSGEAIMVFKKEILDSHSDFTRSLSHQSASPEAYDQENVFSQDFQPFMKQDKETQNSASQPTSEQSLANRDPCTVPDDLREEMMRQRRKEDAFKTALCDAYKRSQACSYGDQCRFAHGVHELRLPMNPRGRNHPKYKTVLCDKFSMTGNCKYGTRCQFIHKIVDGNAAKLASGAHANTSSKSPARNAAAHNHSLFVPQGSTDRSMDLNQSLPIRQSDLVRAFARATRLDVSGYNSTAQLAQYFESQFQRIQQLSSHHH
# [8] = molecular target: T6, Hexokinase (Trypanosoma brucei, UniProt Q38C41); assay: Confirmation assay for inhibitors of Trypanosoma brucei hexokinase 1-Analogue-first series. [Related pubchem assays (depositor defined):AID1430, AID1632, AID2516, AID2560, AID2579, AID2600, AID449725, AID492951]; type: functional
# T6 sequence (Q38C41 whole entry): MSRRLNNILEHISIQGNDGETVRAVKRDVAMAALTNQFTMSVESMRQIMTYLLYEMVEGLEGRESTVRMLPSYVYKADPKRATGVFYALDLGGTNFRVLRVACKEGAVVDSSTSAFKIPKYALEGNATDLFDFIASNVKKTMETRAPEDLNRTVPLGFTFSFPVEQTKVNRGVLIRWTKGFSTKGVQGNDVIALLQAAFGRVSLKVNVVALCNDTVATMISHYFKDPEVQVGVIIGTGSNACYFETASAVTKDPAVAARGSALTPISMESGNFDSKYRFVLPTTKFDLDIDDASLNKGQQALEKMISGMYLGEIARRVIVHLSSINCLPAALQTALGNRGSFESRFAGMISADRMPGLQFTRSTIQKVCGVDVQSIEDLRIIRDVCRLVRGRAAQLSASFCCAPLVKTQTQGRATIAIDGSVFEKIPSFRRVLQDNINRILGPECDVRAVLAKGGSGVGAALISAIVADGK
# [9] = molecular target: Paired box protein Pax-8 (Homo sapiens, UniProt Q06710); assay: PAX8 transcriptional activity inhibition in RMG-I – RMG-I cells, luciferase, cherry-pick, dose response (AID 687027); type: functional, cell-based;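 further: luciferase reporter driven by Pax8 target thyroperoxidase promoter measured by SteadyGlo luminescence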
# Sequence of Paired box protein Pax-8 (Q06710 whole entry): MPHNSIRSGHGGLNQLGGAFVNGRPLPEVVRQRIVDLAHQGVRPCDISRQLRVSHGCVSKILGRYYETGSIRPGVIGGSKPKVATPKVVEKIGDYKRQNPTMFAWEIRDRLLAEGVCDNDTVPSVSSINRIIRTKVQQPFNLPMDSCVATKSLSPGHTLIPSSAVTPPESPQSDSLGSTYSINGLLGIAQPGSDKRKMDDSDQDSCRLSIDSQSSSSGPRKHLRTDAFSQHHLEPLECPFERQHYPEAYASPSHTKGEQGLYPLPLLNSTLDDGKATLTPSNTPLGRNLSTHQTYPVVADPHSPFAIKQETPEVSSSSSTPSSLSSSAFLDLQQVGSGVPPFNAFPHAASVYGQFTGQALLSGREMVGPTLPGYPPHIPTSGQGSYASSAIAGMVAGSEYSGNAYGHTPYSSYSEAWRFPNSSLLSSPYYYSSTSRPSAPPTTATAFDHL
# [10] = OVCAR8 cell viability loss – plate reader, dry powder samples, PAX8 project, dose response (AID 743197); type: functional, cell-based; settings: OVCAR-8
# [11] = molecular target: T7, Short transient receptor potential channel 4 (Mus musculus, UniProt Q9QUQ5); assay: calcium entry via TRPC4 opening agents – cell-based, HEK293 TRPC4/mu-opioid, Fluo-4 calcium, dose response (AID 434937); type: functional
# T7 sequence (Q9QUQ5 whole entry): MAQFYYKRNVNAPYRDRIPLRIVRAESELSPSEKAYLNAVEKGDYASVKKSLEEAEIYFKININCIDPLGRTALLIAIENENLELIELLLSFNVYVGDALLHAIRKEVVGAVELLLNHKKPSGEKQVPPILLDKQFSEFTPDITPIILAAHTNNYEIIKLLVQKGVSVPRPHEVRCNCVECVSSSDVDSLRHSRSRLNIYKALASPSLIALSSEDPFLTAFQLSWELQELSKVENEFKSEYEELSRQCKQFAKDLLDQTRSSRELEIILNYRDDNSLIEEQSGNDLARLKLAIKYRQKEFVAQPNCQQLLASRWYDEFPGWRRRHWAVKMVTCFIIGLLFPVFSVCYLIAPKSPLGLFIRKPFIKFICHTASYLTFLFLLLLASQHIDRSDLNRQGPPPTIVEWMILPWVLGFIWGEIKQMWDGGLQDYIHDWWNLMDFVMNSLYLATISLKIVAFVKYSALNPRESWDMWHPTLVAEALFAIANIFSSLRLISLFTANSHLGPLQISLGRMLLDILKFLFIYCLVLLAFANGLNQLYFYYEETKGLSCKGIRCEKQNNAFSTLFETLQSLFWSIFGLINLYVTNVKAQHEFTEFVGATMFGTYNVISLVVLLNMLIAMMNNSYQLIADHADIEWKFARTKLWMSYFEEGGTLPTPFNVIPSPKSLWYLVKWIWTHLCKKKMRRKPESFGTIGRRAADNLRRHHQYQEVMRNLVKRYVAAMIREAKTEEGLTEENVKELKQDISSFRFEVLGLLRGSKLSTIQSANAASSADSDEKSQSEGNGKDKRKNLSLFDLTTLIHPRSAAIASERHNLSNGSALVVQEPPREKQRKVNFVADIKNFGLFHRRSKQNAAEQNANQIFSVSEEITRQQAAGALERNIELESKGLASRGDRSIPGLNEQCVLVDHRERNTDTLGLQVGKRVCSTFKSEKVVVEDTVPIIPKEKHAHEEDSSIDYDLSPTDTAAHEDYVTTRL
# [12] = molecular target: Nonstructural protein 1 (Influenza A virus, UniProt Q194T2); type: functional, Influenza A virus (A/California/07/2009(H1N1))
# Sequence of Nonstructural protein 1 (Q194T2 whole entry): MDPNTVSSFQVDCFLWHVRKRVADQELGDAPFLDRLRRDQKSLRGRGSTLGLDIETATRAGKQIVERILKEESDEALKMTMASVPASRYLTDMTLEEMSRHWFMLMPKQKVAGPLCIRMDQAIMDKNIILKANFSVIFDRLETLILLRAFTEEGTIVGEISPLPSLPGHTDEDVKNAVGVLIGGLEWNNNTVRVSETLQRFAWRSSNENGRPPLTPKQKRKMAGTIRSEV
# [13] = A cytotoxicity screen of small molecule inhibitors of the PhoP region in Salmonella typhi identified in the primary screen. [Related pubchem assays: 1850, 1864, 1985 ]; type: functional
# [14] = molecular target: Estrogen receptor beta (Homo sapiens, UniProt Q92731);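 further: recombinant ER-beta bound to coactivator SRC1 peptide in presence of estradiol agonist; inhibitors block coactivator peptide binding and lower the FRET signal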
# Sequence of Estrogen receptor beta (Q92731 whole entry): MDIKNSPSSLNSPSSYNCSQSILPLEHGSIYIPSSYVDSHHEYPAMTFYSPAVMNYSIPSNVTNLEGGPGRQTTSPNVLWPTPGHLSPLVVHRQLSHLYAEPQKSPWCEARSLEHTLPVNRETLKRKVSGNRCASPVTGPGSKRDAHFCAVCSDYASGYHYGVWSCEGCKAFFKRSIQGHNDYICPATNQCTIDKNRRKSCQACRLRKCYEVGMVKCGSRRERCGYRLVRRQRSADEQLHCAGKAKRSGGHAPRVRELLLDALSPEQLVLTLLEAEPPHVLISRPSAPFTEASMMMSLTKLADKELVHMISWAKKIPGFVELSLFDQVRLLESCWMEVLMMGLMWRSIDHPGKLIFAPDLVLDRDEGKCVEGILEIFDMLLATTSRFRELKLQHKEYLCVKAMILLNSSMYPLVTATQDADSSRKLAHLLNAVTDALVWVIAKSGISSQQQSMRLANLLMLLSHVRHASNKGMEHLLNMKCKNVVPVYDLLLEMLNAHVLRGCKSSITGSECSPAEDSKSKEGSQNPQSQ
# [15] = molecular target: Cytochrome P450 2C19 (Homo sapiens, UniProt P33261); assay: Cytochrome panel assay with activity outcomes. Panel member name: p450-cyp2c19 Compounds with AC50 equal or less than 10 uM are considered active; type: functional; settings: read-out: AC50
# Sequence of Cytochrome P450 2C19 (P33261 whole entry): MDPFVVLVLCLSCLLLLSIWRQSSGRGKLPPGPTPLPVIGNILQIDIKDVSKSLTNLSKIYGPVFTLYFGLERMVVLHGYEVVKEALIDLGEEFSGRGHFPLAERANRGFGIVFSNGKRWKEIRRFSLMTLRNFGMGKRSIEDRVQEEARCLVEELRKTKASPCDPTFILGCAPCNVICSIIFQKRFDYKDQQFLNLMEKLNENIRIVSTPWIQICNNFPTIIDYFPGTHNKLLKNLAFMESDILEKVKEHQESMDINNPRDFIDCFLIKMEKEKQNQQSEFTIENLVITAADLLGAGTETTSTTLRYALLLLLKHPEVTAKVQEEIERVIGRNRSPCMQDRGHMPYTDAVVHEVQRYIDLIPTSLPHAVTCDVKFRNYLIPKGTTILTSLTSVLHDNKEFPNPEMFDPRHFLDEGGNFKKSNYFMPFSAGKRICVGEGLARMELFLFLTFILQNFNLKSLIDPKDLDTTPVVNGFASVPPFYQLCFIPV
compound,measurement,setting,value
O=C1[C@@H]2C(Cc3ccc(O)cc3)NC3(C(=O)Nc4ccc(F)cc43)[C@@H]2C(=O)N1c1ccc(F)cc1 (stereo not given in full),IC50,[1],> 100 µM (active)
O=C(O)c1cccc(-n2cccc2/C=C2/SC(=O)N(CC(=O)N3CCCC3)C2=O)c1,AC50,[2],> 20 µM (inactive)
same,EC50,[3],> 350 µM (not active)
same,EC50,[4],> 300 µM (not active)
same,EC50,[5],> 350 µM (not active)
same,IC50,[6],5.53 µM (active)
same,EC50,[7],> 300 µM (not active)
Cn1sc(=O)c2ccccc21,IC50,[8],> 25 µM (inactive)
C[C@@H]1CN([C@@H](C)CO)C(=O)Cc2cc(NC(=O)Nc3ccc(C(F)(F)F)cc3)ccc2O[C@H]1CN(C)C(=O)Nc1ccc(C(F)(F)F)cc1,AC50,[9],8.87 µM (active)
same,AC50,[10],> 70 µM (inactive)
CCN(CC)c1ccc(/C=C/[N+](=O)[O-])cc1,EC50,[11],2.99 µM (active)
CCc1ccc2nc(N3CCN(C)CC3)c(C#N)cc2c1,IC50,[1],> 100 µM (active)
CN1CC(C(=O)c2ccc(Cl)cc2)C(c2ccc(N(C)C)cc2)C1 (stereo not given),IC50,[12],43.8 µM (active)
CC(C(=O)NC1CCS(=O)(=O)C1)N1C(=O)/C(=C/c2ccc(Cl)cc2)SC1=S (stereo not given),EC50,[13],> 50 µM (active)
Cc1ccc(C(=O)Nc2cc(Cl)ccc2C(=O)O)cc1,IC50,[8],13.8 µM (active)
C=C(C)c1ccc(C(=O)Nc2cc(Cl)ccc2C(=O)O)cc1,IC50,[8],7.16 µM (active)
COC(=O)c1ccc(Cl)cc1NC(=O)c1ccc(OC)cc1,IC50,[8],> 25 µM (inactive)
COc1ccc(-c2nnc(SC(C)C(=O)Nc3nccs3)n2Cc2ccccc2)cc1OC (stereo not given),EC50,[13],> 50 µM (active)
Brc1ccc2nc(-c3c[nH]c4ccccc34)cn2c1,EC50,[13],> 50 µM (active)
CCN1C(c2ccccc2)=C(c2ccccc2)S/C1=C/C=C1\SC(=S)N(C)C1=O,IC50,[12],7.78 µM (active)
Cc1nccn1-c1ncnc2sc3c(c12)CCCC3,IC50,[14],> 50 µM (not active)
COc1ccc(CC(=O)NCC(c2ccc(OC)cc2)N(C)C)cc1 (stereo not given),EC50,[11],0.668 µM (active)
[O-][n+]1c2ccccc2cc2ccccc21,EC50,[13],> 50 µM (active)
C[C@H]1CCCCO[C@H](CN(C)C(=O)Nc2ccc(C(F)(F)F)cc2)[C@@H](C)CN([C@@H](C)CO)C(=O)c2cc(NS(=O)(=O)c3ccc(F)cc3)ccc2O1,AC50,[9],4.63 µM (active)
same,AC50,[10],> 70 µM (inactive)
N=c1c(C(=O)NCC2CCCO2)cc2c(=O)n3ccccc3nc2n1Cc1ccc(Cl)cc1 (stereo not given),EC50,[13],> 50 µM (active)
O=C(N/N=C/c1ccccn1)c1ccc(Br)o1,AC50,[15],35.5 µM (inconclusive)
same,EC50,[13],> 50 µM (active)
COC(=O)c1ccc(N2CCN(C)CC2)c(NC(=O)c2ccc(Br)o2)c1,EC50,[11],5.96 µM (active)
O=C(Nc1ccc(O)cc1C(=O)O)c1ccc2c(c1)C(=O)N(Cc1ccco1)C2=O,IC50,[14],13.8 µM (active)
